Patent publication US20050148495A1, “Methods and materials including for treating acne” (priority 2003, published 2005)
In brackets after ≈: the same amount, converted by molar mass. Like-named read-outs stand apart in the source and are kept apart here. One block for each molecule: values may come before it.

Legend:
[1] = test system: Staphylococcus aureus; settings: Staphylococcus aureus 342U-116
[2] = test system: E. coli; settings: E. coli 4104 LF
[3] = test system: Serratia marcescens; assay: microbe, parasite or virus in culture; assay type: cell-based; settings: Serratia marcescens 13880; read-out: Minimum Inhibitory Concentrations
Procedure: (§1) Acne vulgaris may involve a microbial consortium. Although P. acnes may be a prominent member of such a consortium, other uncharacterized bacteria may also participate. The microbial activity of XMP.629 as an acetate gel as described in Example 5 and other commonly used antibiotics was evaluated against a panel of human pathogens using standardized NCCLS protocols. […] Lesser potency was observed against the gram-negative organisms B. fragilis, B. cepacia, P. mirabilis and S. marcescens, which are often refractory to many antimicrobial compounds.

[4] = test system: Bacteroides fragilis; assay: microbe, parasite or virus in culture; assay type: cell-based; settings: Bacteroides fragilis 25285; read-out: Minimum Inhibitory Concentrations
Procedure: as §1

[5] = test system: Klebsiella pneumoniae; assay: microbe, parasite or virus in culture; assay type: cell-based; settings: Klebsiella pneumoniae, read-out: Minimum Inhibitory Concentrations
Procedure: as §1

[6] = test system: Proteus mirabilis; assay: microbe, parasite or virus in culture; assay type: cell-based; settings: Proteus mirabilis 29852; read-out: Minimum Inhibitory Concentrations
Procedure: as §1

[7] = test system: Escherichia coli; assay: microbe, parasite or virus in culture; assay type: cell-based; settings: Escherichia coli, read-out: Minimum Inhibitory Concentrations
Procedure: as §1

[8] = test system: Pseudomonas aeruginosa; assay: microbe, parasite or virus in culture
[9] = test system: Enterococcus hirae; assay: microbe, parasite or virus in culture; settings: read-out: Minimum Inhibitory Concentrations
[10] = test system: Enterococcus faccium (VRE); assay: microbe, parasite or virus in culture; settings: read-out: Minimum Inhibitory Concentrations
[11] = test system: Streptococcus pneumoniae; assay: microbe, parasite or virus in culture; settings: read-out: Minimum Inhibitory Concentrations
[12] = test system: Streptococcus sobrinus; assay: microbe, parasite or virus in culture; settings: read-out: Minimum Inhibitory Concentrations
[13] = test system: Streptococcus mutans; assay: MIC, panel of human pathogens, standardized NCCLS protocols; assay type: cell-based; settings: read-out: Minimum Inhibitory Concentrations
[14] = test system: Prevotella intermedia; assay: microbe, parasite or virus in culture; assay type: cell-based; settings: Prevotella intermedia 25261; read-out: Minimum Inhibitory Concentrations
Procedure: as §1

[15] = test system: Actinobacillus actinomycetemcomitans; assay: microbe, parasite or virus in culture; assay type: cell-based; settings: Aggregatibacter actinomycetemcomitans; Actinobacillus actinomycetemcomitans 43718; read-out: Minimum Inhibitory Concentrations
Procedure: as §1

[16] = test system: Porphyromonas gingivalis; assay: microbe, parasite or virus in culture; assay type: cell-based; settings: Porphyromonas gingivalis 33277; read-out: Minimum Inhibitory Concentrations
Procedure: as §1

[17] = test system: Salmonella ryphimurium; assay: microbe, parasite or virus in culture; assay type: cell-based; settings: Salmonella ryphimurium SL770; read-out: Minimum Inhibitory Concentrations
Procedure: as §1

[18] = test system: Burkholderia cepacia; assay: microbe, parasite or virus in culture; assay type: cell-based; settings: Burkholderia cepacia 25416; read-out: Minimum Inhibitory Concentrations
Procedure: as §1

[19] = test system: Macrococcus caseolyticus; assay: microbe, parasite or virus in culture; settings: Macrococcoides caseolyticum, read-out: Minimum Inhibitory Concentrations
[20] = test system: P. acnes strain (ATCC 6919); settings: P. acnes ATCC 6919 passaged in the drug, level of the resistant culture sought/obtained
[21] = test system: P. acnes; assay: microbe, parasite or virus in culture; settings: Cutibacterium acnes
[22] = test system: P. acnes; assay: microbe, parasite or virus in culture; settings: Cutibacterium acnes, read-out: MIC90 of Standard Topical Agents
Procedure: An in vitro assessment of antibiotic activity in XMP.629 and various known antibiotics against a representative panel of bacterial strains associated with acne was conducted. A broth dilution methodology was employed using guidelines established by National Committee for Clinical Laboratory Standards (NCCLS) for anaerobic organisms to establish an antibacterial profile for XMP.629. Assays to determine the minimal bactericidal concentrations (MBC) and minimal inhibitory concentration (MIC) were conducted for XMP.629 and other known antibiotics.
Inoculum from a representative panel of bacterial strains associated with acne, such as P. acnes, P. avidum, P. granulosum, and Staphylococcus epidermis was prepared by suspending approximately 5-10 isolated bacterial colonies in pre-reduced MicroScan® Inoculum Water (Dade Behring, Deerfield, Ill.), and growing the bacterial suspension to log phase (approximately 48 hrs). An inoculum of between 1-5×10^6/mL was achieved by adding 100 μL of the suspension to 25 mL Brain Heart Infusion Broth (BHI) (Anaerobe Systems, Morgan Hill, Calif.).
A stock solution of XMP.629 dissolved in water at a concentration of 4.0 mg/mL was prepared. Dilute solutions of XMP.629 at concentrations ranging from about 1.25 to about 160 μg/mL were made in either water or formulation buffer (130 mM sodium chloride, 0.2% P103 (poloxamer 333), and 0.10% EDTA, pH 7.3).
Control tubes containing only water or formulation buffer were prepared for each isolate. Initial growth controls were determined by removing 10 μL from the water control tube and diluting it by 100 fold. From this dilution, 10 μL was used for inoculation and for spreading over the surface onto Laked Blood Agar (LBA) (Anaerobe Systems, Morgan Hill, Calif.) plates. The tubes and plates were incubated in an anaerobic atmosphere at 37° C. for 48 h.

[23] = test system: Corynebacterium; assay: microbe, parasite or virus in culture; assay type: cell-based; settings: read-out: MIC90 of Standard Topical Agents
Procedure: (§2) Control tubes containing only water or formulation buffer were prepared for each isolate. Initial growth controls were determined by removing 10 μL from the water control tube and diluting it by 100 fold. From this dilution, 10 μL was used for inoculation and for spreading over the surface onto Laked Blood Agar (LBA) (Anaerobe Systems, Morgan Hill, Calif.) plates. The tubes and plates were incubated in an anaerobic atmosphere at 37° C. for 48 h. […] MBC50 and 90 values represent where 50 and 90%, respectively, of the tested strain's MBC values are equal to or less than the indicated concentration.

[24] = test system: P. acnes strain (ATCC 6919); assay: microbe, parasite or virus in culture; settings: Cutibacterium acnes, ATCC6919, read-out: MIC for matched, untreated, control organisms
[25] = test system: P. acnes; settings: strains UPC686 and UP2022; with XMP.629
[26] = test system: S. aureus; assay: Comparison of XMP.629 with standard topical agents (MIC90/MBC); assay type: cell-based, Staphylococcus aureus; settings: Staphylococcus aureus
Procedure: as §2

[27] = test system: Staphylococcus aureus; assay: microbe, parasite or virus in culture
[28] = test system: Enterococcus; assay type: cell-based
Procedure: as §2

[29] = test system: Propionibacterium acnes; assay: microbe, parasite or virus in culture; settings: Cutibacterium acnes, read-out: Minimum Inhibitory Concentrations
[30] = test system: Clostridium difficile; assay: microbe, parasite or virus in culture; settings: Clostridioides difficile, read-out: Minimum Inhibitory Concentrations
[31] = test system: patients; settings: clinical trials; cited from earlier work
[32] = test system: skin of healthy subjects; assay: 21-day cumulative skin irritation study in healthy subjects; settings: occlusive patches
Procedure: Subjects include males and females, ranging in age from 18 to 70 years old. Subjects are of any skin and race type.
Patches are prepared approximately 5-60 minutes before application to the subject and are applied on the backs of subjects at designated sites. Patches are held in place with appropriate adhesion tapes for 48 hours. Gels are applied to the same site on a given subject according to the randomization code three times per week. Subjects are instructed to keep the patches dry and are asked to avoid exercise that results in excessive sweating. Additionally, subjects are instructed to not expose the applied sites to sunlight for the duration of the study.
Every application is observed 48 hours later for signs of irritation or inflammation by a clinician or investigator. The clinician or investigator evaluates sign of skin reaction on each site for approximately 5-15 minutes after the patch is removed. Skin irritancy is rated according to the following commonly used 6-point scale: • 0=No sign of irritation • 0.5=Barely perceptible erythema • 1=Slight erythema • 2=Noticeable erythema with slight infiltration • 3=Erythema with marked edema • 4=Erythema with edema and blistering
Other signs of skin reaction to the tested gels are noted as adverse events and are recorded. A total of nine readings are performed during the study. […]

[33] = read-out: Minimum Inhibitory Concentrations, Pseudomonas aeruginosa 27853
[34] = read-out: Minimum Inhibitory Concentrations, Pseudomonas aeruginosa XS-65 (MDR)
[35] = BAA38|MRSA, read-out: Minimum Inhibitory Concentrations, Staphylococcus aureus BAA-38 (MRSA)
[36] = read-out: Minimum Inhibitory Concentrations, Staphylococcus aureus 19636

MIC [3]: 0.25 µg/mL (≈ 0.451 µM)
MIC [4]: 2.5 µg/mL (≈ 4.51 µM)
MIC ([5]; Klebsiella pneumoniae 19645): > 64 µg/mL
MIC ([5]; Klebsiella pneumoniae 29011): 0.13 µg/mL (≈ 0.234 µM)
MIC [6]: ≤ 0.063 µg/mL
MIC ([7]; Escherichia coli 07:K1): ≤ 0.25 µg/mL
MIC ([7]; Escherichia coli 0111:B4): ≤ 0.063 µg/mL
MIC [8, 33]: 8 µg/mL (≈ 14.4 µM)
MIC [8, 34]: 16 µg/mL (≈ 28.9 µM)
Compound: CO/N=C(\C(=O)N[C@@H]1C(=O)N2C(C(=O)O)=C(CSc3nc(=O)c(=O)[nH]n3C)CS[C@H]12)c1csc(N)n1 [Ceftriaxone]
MBC (antibiotic alone) [1]: >4 µg/mL
MBC (antibiotic alone) [2]: ≦4 μg/mL

MIC [9]: ≤ 1 µg/mL
MIC [10]: 64 µg/mL (≈ 193 µM)
MIC [11]: ≤ 1 µg/mL
MIC [12]: 2 µg/mL (≈ 6.04 µM)
MIC ([13]; Streptococcus mutans 25175): 2 µg/mL (≈ 6.04 µM)
MIC [3]: 0.06 µg/mL (≈ 0.181 µM)
MIC [14]: ≤ 1 µg/mL
MIC [15]: ≤ 1 µg/mL
MIC [16]: ≤ 1 µg/mL
MIC ([5]; Klebsiella pneumoniae 19645): 0.13 µg/mL (≈ 0.392 µM)
MIC ([5]; Klebsiella pneumoniae 29011): ≤ 0.063 µg/mL
MIC [6]: ≤ 0.063 µg/mL
MIC [17]: ≤ 1 µg/mL
MIC [18]: 1 µg/mL (≈ 3.02 µM)
MIC ([7]; Escherichia coli 07:K1): ≤ 0.25 µg/mL
MIC ([7]; Escherichia coli 0111:B4): ≤ 0.063 µg/mL
MIC [19]: ≤ 1 µg/mL
MIC ([8]; read-out: Minimum Inhibitory Concentrations, Pseudomonas aeruginosa 9027): 0.13 µg/mL (≈ 0.392 µM)
MIC ([8]; read-out: Minimum Inhibitory Concentrations, Pseudomonas aeruginosa 19660): 0.13 µg/mL (≈ 0.392 µM)
MIC [8, 33]: ≤ 1 µg/mL
MIC [8, 34]: ≤ 1 µg/mL
Compound: O=C(O)c1cn(C2CC2)c2cc(N3CCNCC3)c(F)cc2c1=O [Ciprofloxacin]

Compound: CC[C@H]1OC(=O)[C@H](C)[C@@H](O[C@H]2C[C@@](C)(OC)[C@@H](O)[C@H](C)O2)[C@H](C)[C@@H](O[C@@H]2O[C@H](C)C[C@H](N(C)C)[C@H]2O)[C@](C)(O)C[C@@H](C)C(=O)[C@H](C)[C@@H](O)[C@]1(C)O [Erythromycin]
MIC/MBC ([20]; listed as Erythromycin IR): 64 µg/mL (≈ 87.2 µM)
MIC/MBC ([20]; listed as Erythromycin R): >64 µg/mL
MIC ([21]; ATCC6919, ATCC 6919 converted to an intermediate-erythromycin strain): 64 µg/mL (≈ 87.2 µM)
MIC ([21]; clindamycin/erythromycin sensitive strain UP2022): < 1 µg/mL
MIC90 [22]: > 256 µg/mL
MIC90 [23]: 0.5 µg/mL (≈ 0.681 µM)
MIC [24]: 4 µg/mL (≈ 5.45 µM)
FIC [25]: 2
MIC90 [26]: > 4 µg/mL

Compound: Cc1onc(-c2ccccc2)c1C(=O)N[C@@H]1C(=O)N2[C@@H]1SC(C)(C)[C@@H]2C(=O)O [Oxacillin]
MBC (antibiotic alone) [1]: 1 µg/mL (≈ 2.49 µM)
MIC [10]: > 64 µg/mL
MIC [27, 35]: 8 µg/mL (≈ 19.9 µM)
MIC [27, 36]: 1 µg/mL (≈ 2.49 µM)

Compound: CN[C@H](CC(C)C)C(=O)N[C@H]1C(=O)N[C@@H](CC(N)=O)C(=O)N[C@H]2C(=O)N[C@H]3C(=O)N[C@H](C(=O)N[C@H](C(=O)O)c4cc(O)cc(O)c4-c4cc3ccc4O)[C@H](O)c3ccc(c(Cl)c3)Oc3cc2cc(c3O[C@@H]2O[C@H](CO)[C@@H](O)[C@H](O)[C@H]2O[C@H]2C[C@](C)(N)[C@H](O)[C@H](C)O2)Oc2ccc(cc2Cl)[C@H]1O [Vancomycin]
MIC90 of Standard Topical Agents [28]: 1.0/NE
MIC90 [22]: 2 µg/mL (≈ 1.38 µM)
MIC [29]: 2 µg/mL (≈ 1.38 µM)
MIC [10]: > 64 µg/mL
MIC90 [23]: 0.5 µg/mL (≈ 0.345 µM)
MIC [12]: 1 µg/mL (≈ 0.69 µM)
MIC [27, 35]: 1 µg/mL (≈ 0.69 µM)
MIC ([27]; read-out: Minimum Inhibitory Concentrations, Staphylococcus aureus 6258): 2 µg/mL (≈ 1.38 µM)
MIC ([27]; read-out: Minimum Inhibitory Concentrations, Staphylococcus aureus 11371): 1 µg/mL (≈ 0.69 µM)
MIC ([27]; read-out: Minimum Inhibitory Concentrations, Staphylococcus aureus 12598): 1.25 µg/mL (≈ 0.863 µM)
MIC [27, 36]: ≤ 1 µg/mL
MIC90 [26]: 4 µg/mL (≈ 2.76 µM)
MIC ([13]; Streptococcus mutans): 2 µg/mL (≈ 1.38 µM)
MIC [30]: 1 µg/mL (≈ 0.69 µM)

Compound: O=C(O)CCCCCCCC(=O)O [azelaic acid]
patients reporting pruritus (itching), burning, stinging, and tingling [31]: 1-5%

Compound: CCCCCCCCCCCCOS(=O)(=O)[O-].[Na+] [sodium lauryl sulfate]
cumulative irritation, conclusion [32]: mild cumulative irritation
mean cumulative irritation score [32]: 0.25
